The values that follow come from US8628750B2, “Cancer imaging and treatment” (Technische Universitat Munchen, priority 2006, dated 2014).

Assay [1] has as its target T1, human CXCR4 (Homo sapiens, UniProt P61073). The assay can be described thus: cell-based. The class given is binding. Set-up: Jurkat cells that endogenously express the CXCR4 receptor; endogenous in cells; host or cells: Jurkat (ATCC).
Protocol: For receptor binding assays cells were resuspended in PBS/0.2% BSA. A total of 200 μl of the suspension containing 400,000 cells (Jurkat, CMS5) or 200,000 cells (CMS5/CXCR4) were incubated with 25 μl of the tracer solution (containing 3.1 kBq, approx. 0.1 nM) and 25 μl of the diluent or the competitor at different concentrations. […] After shaking for 2 h at room temperature, the incubation was terminated by centrifugation at 700×g and 4° C. for 4 min. Cell pellets were washed once with cold PBS followed by a second centrifugation step or for internalization studies, two times with an acidic wash buffer (20 mM NaOAc, pH5.0). Cell bound radioactivity was determined by using a gamma counter. Experiments were repeated 2-3 times in duplicates or triplicates. IC50 values of the binding curves were calculated by nonlinear regression on a one-site or two-site competition based model using Prism 3.0 (Graph Pad Software, Inc, San Diego). KD and Bmax values were determined by nonlinear regression with the Prism 3.0 according to the manufacturer's protocol.
The target of assay [2] is T1, human CXCR4.
Protocol: CXCR4 expression on the cell surface of trypsinized cells was determined using a phycoerythrine (PE)-labeled monoclonal rat antibody with specificity for human CXCR4 (1D9, BD Biosciences Pharmingen, Heidelberg, Germany). Trypsinized cells were washed with FACS buffer (PBS, 0.5% FCS) and 1×10^6 cells were stained with 0.5 μg antibody for 30 min. in the dark at 4° C. Cells were extensively washed with ice-cold FACS buffer and analyzed by flow cytometry. Nonspecific staining was assessed by PE-conjugated rat IgG2b,κ (BD Biosciences Pharmingen, Heidelberg, Germany). […] CXCR-4 staining was plotted against EGFP fluorescence (FL1).
(adapted from protocols published previously)[7, 8]; controls were incubated with diluent (PBS/0.1% BSA). Samples were immediately transferred to ice to avoid further internalization, centrifuged, washed with PBS/0.5% BSA and FACS staining for CXCR4 was performed as indicated above.

Where two headings read alike, the source gives them in different places. Numbered stars: 1 amine (or outer) side, 2 acyl side, 3 side chain; on linkers, the order of the positions; unused ones are H or OH. Square brackets hold non-standard residues; d marks the D form. Peptide text beside a SMILES is read from it. * marks the point of attachment. X3 = O=C(c1ccc(F)cc1)N(CCC[C@H](N[*:1])C(=O)[*:2])Cc1ccccc1; X1 = CN(CCC[C@H](C(=O)[*:2])N(C)[*:1])C(=O)c1ccc(F)cc1; X2 = O=C([C@H](CCCNCc1cccc2ccccc12)N[*:1])[*:2]; X4 = O=C([C@H](CCCNCc1ccc2ccccc2c1)N[*:1])[*:2]; 2Nal = N[C@@H](Cc1ccc2ccccc2c1)C(=O)O; Benzoyl(4-F) = O=C(c1ccc(F)cc1)*; dOrn = NCCC[C@@H](N)C(=O)O; Orn = NCCC[C@H](N)C(=O)O Bounds are passed on as bounds.

T1 sequence (P61073 whole entry): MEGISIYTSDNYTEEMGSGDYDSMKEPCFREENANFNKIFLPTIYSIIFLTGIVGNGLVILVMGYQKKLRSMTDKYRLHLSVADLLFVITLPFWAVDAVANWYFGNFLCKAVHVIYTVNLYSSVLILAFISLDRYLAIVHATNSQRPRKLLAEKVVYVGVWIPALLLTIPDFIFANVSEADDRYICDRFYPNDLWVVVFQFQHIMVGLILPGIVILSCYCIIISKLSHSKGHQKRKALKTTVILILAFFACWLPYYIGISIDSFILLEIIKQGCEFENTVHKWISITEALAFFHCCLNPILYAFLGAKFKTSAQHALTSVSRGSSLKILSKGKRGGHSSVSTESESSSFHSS

`N=C(N)NCCC[C@@H]1NC(=O)[C@H](CCCNC(=N)N)NC(=O)[C@@H](Cc2ccc(O)cc2)NC(=O)CNC(=O)[C@H](Cc2ccc3ccccc3c2)NC(=O)[C@H](Cc2ccc3ccccc3c2)NC1=O` [BL 42, cyc[D-Tyr-Arg-Arg-Nal-Nal-Gly]] (cyclo([2Nal][2Nal]G[dY]RR)): the IC50 (usually the concentration that inhibits the measured activity by half) against human CXCR4 [1] is over 1000 nM. Still for that read-out and setting: with `CN(CCC[C@@H]1C(=O)N[C@@H](CCCNC(=N)N)C(=O)N[C@@H](Cc2ccc3ccccc3c2)C(=O)NCC(=O)N[C@H](Cc2ccc(O)cc2)C(=O)N1C)C(=O)c1ccc(F)cc1` [cyc[D-Tyr-(Me)D-Orn(Me,FB)-Arg-Nal-Gly]] (cyclo([2Nal]G[dY][X1]R)) the figure was 59 nM; with `N=C(N)NCCC[C@@H]1NC(=O)[C@@H](CCCNC(=O)c2ccc(F)cc2)NC(=O)[C@@H](Cc2ccc(O)cc2)NC(=O)CNC(=O)[C@H](Cc2ccc3ccccc3c2)NC1=O` [cyc[D-Tyr-D-Orn(FB)-Arg-Nal-Gly]] (cyclo([2Nal]G[dY][dOrn](Benzoyl(4-F))R)), 86 nM; with `N=C(N)NCCC[C@@H]1NC(=O)[C@H](CCCN(Cc2ccccc2)C(=O)c2ccc(F)cc2)NC(=O)[C@@H](Cc2ccc(O)cc2)NC(=O)CNC(=O)[C@H](Cc2ccc3ccccc3c2)NC1=O` [cyc[D-Tyr-Orn(Bz,FB)-Arg-Nal-Gly]] (cyclo([2Nal]G[dY][X3]R)), 100 nM. As to `N=C(N)NCCC[C@@H]1NC(=O)[C@H](CCCNC(=O)c2ccc(F)cc2)NC(=O)[C@@H](Cc2ccc(O)cc2)NC(=O)CNC(=O)[C@H](Cc2ccc3ccccc3c2)NC1=O` [cyc[D-Tyr-Orn(FB)-Arg-Nal-Gly]] (cyclo([dY][Orn](Benzoyl(4-F))R[2Nal]G)), the IC50 on human CXCR4 [1] was 11 nM. Turning to `N=C(N)NCCC[C@@H]1NC(=O)[C@H](CCCNCc2cccc3ccccc23)NC(=O)[C@@H](Cc2ccc(O)cc2)NC(=O)CNC(=O)[C@H](Cc2ccc3ccccc3c2)NC1=O` [cyc[D-Tyr-Orn(N1)-Arg-Nal-Gly]] (cyclo([dY][X2]R[2Nal]G)), on human CXCR4 [1], the half-inhibitory concentration (IC50) is 40 ± 3 nM. In the case of `N=C(N)NCCC[C@@H]1NC(=O)[C@H](CCCNCc2ccc3ccccc3c2)NC(=O)[C@@H](Cc2ccc(O)cc2)NC(=O)CNC(=O)[C@H](Cc2ccc3ccccc3c2)NC1=O` [cyc[D-Tyr-Orn(N2)-Arg-Nal-Gly]] (cyclo([dY][X4]R[2Nal]G)), it took 49 ± 1 nM to reach half-maximal inhibition against human CXCR4 [1] (IC50). For SDF-1α, the “cells stained positive for CXCR4 after pre-incubation” value on human CXCR4 [2] (CMS5/CXCR4 cells, 100 nM SDF-1α, 1 hr at 37° C., control-treated […]) is given as 54.7%. In addition, the “mean fluorescence intensity of CXCR4 staining” value at human CXCR4 [2] (CMS5/CXCR4 cells, mock treated 209.0) came out at 80.5; at human CXCR4 [2] (Jurkat cells, drop from 385.4), 155.4. The CXCR4-background staining on human CXCR4 [2] (parental CMS5 cells, in the presence of SDF-1α, from 7.9) came out at 2.7%.
